Laboratory results from PubChem BioAssay (NCI).
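Cultured in 96-well plates, cells were exposed to test compound for 48 hours across five concentrations. GI50: concentration for 50% inhibition of growth. TGI: concentration producing complete growth inhibition.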

Columns and labels:
Experiment in all cases: NCI anticancer screen, dose series, 48 h
NCI-H226 lung = tested on: NCI-H226 lung
SF-295 CNS = tested on: SF-295 CNS
SR leukemia = tested on: SR leukemia
A498 renal = tested on: A498 renal
RPMI-8226 leukemia = tested on: RPMI-8226 leukemia
SNB-75 CNS = tested on: SNB-75 CNS
HCT-116 colon = tested on: HCT-116 colon
LOX IMVI melanoma = tested on: LOX IMVI melanoma
ACHN renal = tested on: ACHN renal
OVCAR-5 ovarian = tested on: OVCAR-5 ovarian

Structure (SMILES)	GI50 (NCI-H226 lung)	TGI (NCI-H226 lung)	GI50 (SF-295 CNS)	TGI (SF-295 CNS)	GI50 (SR leukemia)	TGI (SR leukemia)	GI50 (A498 renal)	TGI (A498 renal)	GI50 (RPMI-8226 leukemia)	TGI (RPMI-8226 leukemia)	GI50 (SNB-75 CNS)	TGI (SNB-75 CNS)	GI50 (HCT-116 colon)	TGI (HCT-116 colon)	GI50 (LOX IMVI melanoma)	TGI (LOX IMVI melanoma)	GI50 (ACHN renal)	TGI (ACHN renal)	GI50 (OVCAR-5 ovarian)	TGI (OVCAR-5 ovarian)
O=C1c2ccccc2C(=O)c2c1ccc1[nH]c(CCl)nc21	2.56 µM	7.96 µM	7.99 µM	20.6 µM	2.25 µM	13.8 µM	1.27 µM	7.06 µM	1.83 µM	5.87 µM	1.56 µM	10.8 µM	1.85 µM	4.7 µM	2.2 µM	5.22 µM	2.27 µM	6.49 µM	10.2 µM	24.5 µM
CN(C)CCNC(=O)c1cccc2nc3c(Cl)cccc3nc12		13.5 µM		> 27.1 µM		> 100 µM		16.9 µM		82.6 µM		32.2 µM		16.1 µM		10.7 µM		30.5 µM		16.7 µM
Cn1cc(C2=C(c3ccc(OC[C@@H](O)CO)cc3)C(=O)NC2=O)c2ccccc21	> 25 µM	> 25 µM	> 25 µM	> 25 µM	> 25 µM	> 25 µM	3.54 µM	15.3 µM	> 25 µM	> 25 µM	2.23 µM	> 25 µM	> 25 µM	> 25 µM	> 25 µM	> 25 µM	> 25 µM	> 25 µM	> 25 µM	> 25 µM
CN(C)c1ccc2c(c1)oc(=O)c1ccccc12		31.9 µM		48.2 µM		21.5 µM		33 µM		28.8 µM		31.9 µM		25.9 µM		18.7 µM		44.6 µM		30.2 µM
COc1cc2c(c(OC)c1OC)-c1ccc(NCc3ccccc3)c(=O)cc1[C@@H](NC(C)=O)CC2	1.01 µM	17.1 µM	0.617 µM	18.3 µM	0.436 µM	> 44.3 µM	0.248 µM	0.771 µM	0.531 µM	16.3 µM	0.318 µM	25.2 µM	0.419 µM	> 100 µM	0.444 µM	14.9 µM	1.39 µM	> 66.6 µM	0.723 µM	> 100 µM
N#Cc1nc(-c2ccc(F)cc2)oc1S(=O)(=O)N1CCOCC1	4.33 µM	19.9 µM	16.1 µM	30.6 µM	0.439 µM	2.92 µM	15.6 µM	32 µM	1.55 µM	4.49 µM	10.2 µM	22 µM	1.28 µM	3.07 µM	1.02 µM	2.3 µM	1.74 µM	3.12 µM	2.8 µM	9.38 µM
CCOC(=O)c1cc(-c2ccc([N+](=O)[O-])cc2)n(-c2ccc(C(=O)O)c(O)c2)c1C	11.2 µM	33.9 µM	3.72 µM	19.6 µM	9.3 µM	> 100 µM	10.1 µM	21.9 µM	0.148 µM	> 100 µM	7.65 µM	22.1 µM	2.78 µM	11.6 µM	2.85 µM	11 µM	2.94 µM	9.38 µM	17.3 µM	35.3 µM
CC1=C2[C@@H](CC1)[C@]1(C)O[C@@](C(C)C)(C[C@H]1OC(=O)[C@H](C)O)[C@H]2OC(=O)/C=C/c1ccccc1	12.9 µM	29.6 µM	11.5 µM	24.8 µM	10.3 µM	37.5 µM	0.236 µM	0.702 µM	7.9 µM	30.8 µM	19.2 µM	51.2 µM	13.4 µM	29.2 µM	15.1 µM	30.7 µM	0.145 µM	13 µM	17.7 µM	36.2 µM
C[C@@H]1Cc2c([nH]c3ccccc23)[C@@H](c2c(F)cc(/C=C/C(=O)O)cc2F)N1CC(C)(C)F	18.2 µM	45.2 µM	8.65 µM	22.6 µM	15.9 µM	48.4 µM	8.77 µM	23.7 µM	8.1 µM	37.6 µM	12.9 µM	28.6 µM	12.7 µM	26.7 µM	12.3 µM	27.2 µM	12.7 µM	28 µM	22.2 µM	46.8 µM
Cc1c(Cl)cccc1Nc1ncccc1C(=O)O	> 100 µM	> 100 µM	16.7 µM	76.7 µM	> 100 µM	> 100 µM	34.3 µM	> 100 µM	47.7 µM	> 100 µM	> 100 µM	> 100 µM	46.8 µM	> 100 µM	54.9 µM	> 100 µM	58.5 µM	> 100 µM	> 100 µM	> 100 µM
O=C1Oc2cc3c(c4cccc1c24)OCN(c1ccc(Cl)cc1)C3		> 100 µM		> 100 µM		49 µM		> 100 µM		42.1 µM		> 100 µM		29.3 µM		17.7 µM		> 100 µM		> 77.3 µM
